Test results as given in US7557092B2, “Purinergic modulation of smell” (University of Utah Research Foundation, priority 2002, dated 2009).
Like-named read-outs stand apart in the source and are kept apart here. Each block holds one compound with its values, some of them ahead of it.

How the values were obtained:
[1] = tested on: ORNs in mouse olfactory epithelium slices; test: confocal calcium imaging of fluo-4 AM loaded olfactory epithelium slices, ORNs; assay type: cell-based; conditions: for evoked calcium transients in olfactory epithelial slices: superfused onto olfactory epithelial slices (ORNs and sustentacular cells); for agonist-evoked calcium transients in ORNs: 10 μM agonist superfused onto slice
Description: (§1) To study the effects of ATP on odor responses, acutely prepared slices of mouse olfactory epithelium were used. Confocal imaging of fluo-4 AM-loaded olfactory epithelium slices allows simultaneous recording from identified structures within the olfactory epithelium, i.e., both ORNs and sustentacular cells. […] The difference in robustness can be due to poor access to the ATP stimulus: odorant receptors are on the cilia of the ORNs, which extend beyond the outer edge of the olfactory epithelium, whereas purinergic receptors are located deeper within the olfactory epithelium. […] The latency of activation for the ATP-evoked calcium transient was shorter in the ORN (FIG. 3B2, solid up arrowhead) than in sustentacular cells (FIG. 3B3, open down arrowhead). Collectively, this was consistent with ORNs expressing the faster P2X receptors, and the sustentacular cells expressing the slower G-protein coupled P2Y receptors.
(§2) To prepare olfactory epithelium slices, neonatal mice (postnatal day 0-6) were quickly decapitated, and the skin and lower jaw were removed. Tissue was mounted in ice cold Ringers onto a vibratome-cutting block and 300 μm slices were made. Primary cultures of mouse ORNs were made using the same protocol and culture conditions as described for rat olfactory receptor neurons (Vargas and Lucero, 1999a). Briefly, tissue was placed in divalent cation-free Ringers containing 10 mg/ml bovine serum albumin, 1 mg/ml deoxyribonuclease II and 44 U/ml dispase, incubated at 37° C. for 45 min. The tissue was washed, triturated, and filtered through a […] mesh and […] cells were plated onto concanavalin A-coated coverslips and allowed to settle for 20 min. An additional 1.5 ml of culture medium was added (DMEM supplemented with […] ascorbic acid, 1X insulin-transferrin-seleniumX (GIBCO BRL), 2 mM glutamine, 100 U/ml penicillin G and […] streptomycin).
(§3) [Ca^2+]i was determined using confocal imaging of fluo-4 AM (18 μM; Molecular Probes) loaded cells and slices. Cells or slices were placed in a laminar flow chamber (Warner Instruments) and perfused continuously with Ringers solution at a flow rate of 1.5-2.0 ml/min. Ringers contained (mM): 140 NaCl, 5 KCl, 1 MgCl2, 2 CaCl2, 10 HEPES, 10 glucose, […] and 400 nM tetrodotoxin. Test solutions were applied using bath exchange and a small volume loop injector (200 μl). A Zeiss LSM 510 confocal laser scanning system was used for data collection and analysis. Time series experiments were performed collecting 1400×700 pixel images at 0.2-0.4 Hz. The fluorometric signals obtained are expressed as relative fluorescence change, ΔF/F═(F−F0)/F0, where F0 is the basal fluorescence level. Increases in F greater than 10% above baseline noise were considered responses.

[2] = tested on: sustentacular cells in mouse olfactory epithelium slices; test: confocal calcium imaging of fluo-4 AM loaded olfactory epithelium slices, sustentacular cells; assay type: cell-based; conditions: for agonist-evoked calcium transients in sustentacular cells: 10 μM agonist superfused onto slice
Description: as §1, §2, §3

P2Y11 = target: T1, P2Y11 (Homo sapiens, UniProt Q96G91); conditions: cDNA from Human placenta; cited from earlier work
T1 sequence (Q96G91 1-374): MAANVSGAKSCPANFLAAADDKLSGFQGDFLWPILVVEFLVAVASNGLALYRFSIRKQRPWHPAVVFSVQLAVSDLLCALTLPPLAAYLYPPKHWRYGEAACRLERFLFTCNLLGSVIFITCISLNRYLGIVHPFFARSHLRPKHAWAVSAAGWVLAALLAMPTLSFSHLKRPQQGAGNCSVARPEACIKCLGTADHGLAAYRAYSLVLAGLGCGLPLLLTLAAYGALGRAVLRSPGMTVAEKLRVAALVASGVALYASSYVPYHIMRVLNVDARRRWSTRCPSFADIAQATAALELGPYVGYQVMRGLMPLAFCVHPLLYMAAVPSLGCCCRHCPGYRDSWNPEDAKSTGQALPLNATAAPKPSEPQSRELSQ

[3] = tested on: odor responses of mouse ORNs in olfactory epithelium slices; test: co-application of odor and purinergic receptor agonist, calcium transients in olfactory epithelium slices; assay type: cell-based
P2X7 = target: T2, P2X7 (Rattus norvegicus, UniProt Q64663); conditions: cDNA from Rat macrophage and brain; cited from earlier work
T2 construct: host or cells: Xenopus oocytes
T2 sequence (Q64663 1-595): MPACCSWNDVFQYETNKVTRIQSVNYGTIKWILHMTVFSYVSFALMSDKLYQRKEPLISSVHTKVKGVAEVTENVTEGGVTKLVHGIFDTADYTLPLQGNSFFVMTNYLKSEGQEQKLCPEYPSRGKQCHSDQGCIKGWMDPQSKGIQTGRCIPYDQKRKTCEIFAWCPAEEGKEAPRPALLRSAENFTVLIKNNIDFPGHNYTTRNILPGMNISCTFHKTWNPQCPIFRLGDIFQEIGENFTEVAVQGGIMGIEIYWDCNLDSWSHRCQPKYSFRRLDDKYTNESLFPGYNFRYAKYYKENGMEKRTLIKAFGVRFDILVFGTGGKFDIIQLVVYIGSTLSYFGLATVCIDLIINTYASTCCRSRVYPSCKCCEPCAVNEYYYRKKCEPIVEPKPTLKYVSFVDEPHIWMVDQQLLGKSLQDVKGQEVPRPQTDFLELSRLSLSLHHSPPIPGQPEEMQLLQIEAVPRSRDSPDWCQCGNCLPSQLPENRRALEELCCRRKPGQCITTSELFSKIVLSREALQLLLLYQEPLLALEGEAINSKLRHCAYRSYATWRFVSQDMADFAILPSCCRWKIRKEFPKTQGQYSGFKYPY

P2Y1 [4] = target: P2Y1 (Rattus norvegicus, UniProt P49651); conditions: cited from earlier work
P2Y1 [5] = target: P2Y1 (Meleagris gallopavo, UniProt P49652); conditions: cDNA from Turkey brain; cited from earlier work
P2Y1 [6] = target: P2Y1 (Gallus gallus, UniProt P34996); conditions: cDNA from Chick brain; cited from earlier work
P2X2 = target: T3, P2X2 (Rattus norvegicus, UniProt P49653); conditions: cDNA from Rat PC12 cells; cited from earlier work
T3 construct: host or cells: Xenopus oocytes
T3 sequence (P49653 1-472): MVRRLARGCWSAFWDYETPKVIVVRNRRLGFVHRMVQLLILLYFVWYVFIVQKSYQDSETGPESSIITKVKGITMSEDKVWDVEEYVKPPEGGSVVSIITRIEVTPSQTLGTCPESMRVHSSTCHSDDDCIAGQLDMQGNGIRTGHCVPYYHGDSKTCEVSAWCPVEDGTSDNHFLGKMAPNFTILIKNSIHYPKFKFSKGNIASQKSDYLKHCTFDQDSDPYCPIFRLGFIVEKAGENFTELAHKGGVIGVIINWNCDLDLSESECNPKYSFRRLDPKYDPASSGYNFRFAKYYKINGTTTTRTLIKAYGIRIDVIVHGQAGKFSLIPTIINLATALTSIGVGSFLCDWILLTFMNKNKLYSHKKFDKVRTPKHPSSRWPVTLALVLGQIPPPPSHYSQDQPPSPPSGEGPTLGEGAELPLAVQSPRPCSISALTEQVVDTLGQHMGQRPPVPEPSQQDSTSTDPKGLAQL

P2X4 = target: T4, P2X4 (Rattus norvegicus, UniProt P51577); conditions: cDNA from Rat superior cervical ganglion; cited from earlier work
T4 construct: host or cells: Xenopus oocytes
T4 sequence (P51577 1-388): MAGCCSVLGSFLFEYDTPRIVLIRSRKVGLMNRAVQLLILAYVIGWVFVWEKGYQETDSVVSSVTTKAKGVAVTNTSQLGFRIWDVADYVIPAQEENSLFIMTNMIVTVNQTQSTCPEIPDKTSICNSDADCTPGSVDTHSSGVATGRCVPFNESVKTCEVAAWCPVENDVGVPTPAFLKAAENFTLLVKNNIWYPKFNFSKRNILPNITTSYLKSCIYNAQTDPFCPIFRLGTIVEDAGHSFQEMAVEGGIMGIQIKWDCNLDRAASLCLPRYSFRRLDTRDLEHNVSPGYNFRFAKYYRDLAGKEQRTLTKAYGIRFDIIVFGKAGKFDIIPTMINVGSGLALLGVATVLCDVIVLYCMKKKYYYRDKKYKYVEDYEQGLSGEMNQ

P2X5 = target: T5, P2X5 (Rattus norvegicus, UniProt P51578); conditions: cDNA from Rat ganglia; cited from earlier work
T5 construct: host or cells: Xenopus oocytes
T5 sequence (P51578 1-455): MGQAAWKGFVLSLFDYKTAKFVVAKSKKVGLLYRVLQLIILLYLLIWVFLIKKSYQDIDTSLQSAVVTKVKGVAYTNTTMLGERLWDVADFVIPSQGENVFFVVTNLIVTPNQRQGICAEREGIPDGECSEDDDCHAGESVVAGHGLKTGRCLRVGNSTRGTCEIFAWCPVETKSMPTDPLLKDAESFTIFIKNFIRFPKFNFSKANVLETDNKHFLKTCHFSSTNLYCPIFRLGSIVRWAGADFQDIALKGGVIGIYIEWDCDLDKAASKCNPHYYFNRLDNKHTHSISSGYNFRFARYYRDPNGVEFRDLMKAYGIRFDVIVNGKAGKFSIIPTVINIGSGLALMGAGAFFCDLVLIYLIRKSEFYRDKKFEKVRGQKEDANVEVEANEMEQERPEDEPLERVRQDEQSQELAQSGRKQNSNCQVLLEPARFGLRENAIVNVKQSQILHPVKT

P2X6 = target: T6, P2X6 (Rattus norvegicus, UniProt P51579); conditions: cDNA from Rat superior cervical ganglion; cited from earlier work
T6 construct: host or cells: Xenopus oocytes

[7] = ORNs, PPADS 25 μm, reversible, n=5
[8] = sustentacular cells, PPADS, n=30
[9] = co-application of 10 μM βγ-methylene ATP and odor, 2/16 cells

P2Y1 (Rattus norvegicus, UniProt P49651), sequence (P49651 whole entry): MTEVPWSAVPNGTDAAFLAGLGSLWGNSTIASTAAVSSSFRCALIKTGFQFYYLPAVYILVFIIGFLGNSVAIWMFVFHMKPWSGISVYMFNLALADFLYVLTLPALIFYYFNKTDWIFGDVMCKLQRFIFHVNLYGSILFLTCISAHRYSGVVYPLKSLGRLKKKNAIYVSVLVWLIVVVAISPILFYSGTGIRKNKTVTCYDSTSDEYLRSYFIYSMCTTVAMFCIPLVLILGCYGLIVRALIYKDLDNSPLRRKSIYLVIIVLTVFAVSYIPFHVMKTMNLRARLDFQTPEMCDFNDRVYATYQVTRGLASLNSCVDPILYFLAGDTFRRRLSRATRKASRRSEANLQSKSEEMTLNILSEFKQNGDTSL
P2Y1 (Meleagris gallopavo, UniProt P49652), sequence (P49652 whole entry): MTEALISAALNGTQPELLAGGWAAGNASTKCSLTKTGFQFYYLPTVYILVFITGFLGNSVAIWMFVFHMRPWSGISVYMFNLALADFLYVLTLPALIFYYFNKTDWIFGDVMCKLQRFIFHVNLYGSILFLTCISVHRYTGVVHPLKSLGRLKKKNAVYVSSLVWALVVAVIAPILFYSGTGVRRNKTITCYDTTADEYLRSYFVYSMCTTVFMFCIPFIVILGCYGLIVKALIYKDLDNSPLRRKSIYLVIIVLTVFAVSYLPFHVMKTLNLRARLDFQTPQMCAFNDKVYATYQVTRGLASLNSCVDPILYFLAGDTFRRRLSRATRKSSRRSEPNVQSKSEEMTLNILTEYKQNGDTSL
P2Y1 (Gallus gallus, UniProt P34996), sequence (P34996 whole entry): as the sequence (P49652 whole entry) above, with S28T counted along it
T6 sequence (P51579 whole entry): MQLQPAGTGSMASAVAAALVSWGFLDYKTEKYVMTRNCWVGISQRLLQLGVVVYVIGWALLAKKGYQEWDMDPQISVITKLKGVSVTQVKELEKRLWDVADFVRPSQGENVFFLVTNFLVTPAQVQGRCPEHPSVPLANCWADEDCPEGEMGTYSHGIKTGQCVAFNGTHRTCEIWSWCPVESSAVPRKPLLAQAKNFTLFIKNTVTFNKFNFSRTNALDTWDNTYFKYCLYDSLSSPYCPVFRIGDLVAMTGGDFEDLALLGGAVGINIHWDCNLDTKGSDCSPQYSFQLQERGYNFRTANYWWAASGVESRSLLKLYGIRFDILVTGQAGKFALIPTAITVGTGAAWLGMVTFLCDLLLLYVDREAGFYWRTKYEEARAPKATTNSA

SMILES: Nc1ncnc2c1ncn2[C@@H]1O[C@H](COP(=O)(O)O)[C@@H](O)[C@H]1O [AMP]
evoked calcium transients in olfactory epithelial slices [1]: never observed

SMILES: Nc1ncnc2c1ncn2[C@@H]1O[C@H](CO)[C@@H](O)[C@H]1O [Adenosine]
evoked calcium transients in olfactory epithelial slices [1]: never observed

SMILES: Cc1nc(N=Nc2ccc(S(=O)(=O)O)cc2S(=O)(=O)O)c(COP(=O)(O)O)c(C=O)c1O [PPADS, pyridoxalphosphate-6-azophenyl-2′,4′-disulfonic acid]
block of ATP-evoked calcium transients [1, 7]: 87±5%
block of UTP-evoked calcium transients [1, 7]: 92±3%
block of ATP-evoked Ca2+ transients [2, 8]: 82±2%
block of UTP-evoked Ca2+ transients [2, 8]: 76±2%

SMILES: O=c1ccn([C@@H]2O[C@H](COP(=O)(O)OP(=O)(O)O)[C@@H](O)[C@H]2O)c(=O)[nH]1 [UDP]
Agonist activity (P2Y11): (UTP, UDP inactive)

SMILES: O=c1ccn([C@@H]2O[C@H](COP(=O)(O)OP(=O)(O)OP(=O)(O)O)[C@@H](O)[C@H]2O)c(=O)[nH]1 [UTP]
agonist-evoked calcium transients in ORNs [1]: evoked calcium transients
agonist-evoked calcium transients in sustentacular cells [2]: evoked calcium transients
effect on co-application evoked calcium transient ([3]; P2Y selective agonists co-applied with odor): suppressed the co-application evoked calcium transient
Agonist activity (P2X7): BzATP > ATP > 2MeSATP > ADP; UTP inactive
Agonist activity (P2Y1 [4]; cDNA from Rat ileal myocytes): (UTP inactive)
Agonist activity (P2Y1 [5]): 2MeSATP > ADP > ATP; (UTP inactive)
Agonist activity (P2Y1 [6]): 2MeSATP > ATP > ADP; (UTP inactive)
Agonist activity (P2Y11): (UTP, UDP inactive)

SMILES: Nc1ncnc2c1ncn2[C@@H]1O[C@H](COP(=O)(O)CP(=O)(O)OP(=O)(O)O)[C@@H](O)[C@H]1O [α,β-meATP, α,β-methylene ATP]
Agonist activity (P2X2): 2MeSATP > ATP; α,β-meATP inactive
Agonist activity (P2X4): ATP; α,β-meATP inactive
Agonist activity (P2X5): α,β-meATP inactive
Agonist activity (P2X6): ATP > 2MeSATP > ADP; α,β-meATP inactive
Agonist activity (P2Y1 [4]; cDNA from Rat insulinoma cells): (α,β-meATP inactive)

ORNs with enhanced calcium transient amplitude ([3]; co-application of 10 μM βγ-MeATP and odors, 2 slices): 2/16
ORNs with suppressed calcium transient amplitude ([3]; co-application of 10 μM βγ-MeATP and odors, 6 slices): 12/16
enhancement of calcium transient amplitude [3, 9]: 168±44%
suppression of Ca2+ transient amplitude ([3]; co-application of 10 μM βγ-methylene ATP and odor, 2/16 cells as printed): 42±5%
reduction in the average amplitude of the Ca2+ transient, overall ([3]; co-application of 10 μM βγ-methylene ATP and odor, 16/16 cells): 25±11%
SMILES: Nc1ncnc2c1ncn2[C@@H]1O[C@H](COP(=O)(O)OP(=O)(O)CP(=O)(O)O)[C@@H](O)[C@H]1O [βγ-methylene ATP, β,γ-methylene ATP]
agonist-evoked calcium transients in ORNs [1]: responded
agonist-evoked calcium transients in sustentacular cells [2]: not the sustentacular cells
change of amplitude in cells with no effect [3, 9]: 15±1%
